Laboratory results published in patent US10611728B2, “Isoindoline compositions and methods for treating neurodegenerative disease” (priority 2014, dated 2020).

system: Abeta oligomer-induced synapse loss in primary hippocampal neurons; assay: Abeta 1-42 oligomer synapse loss assay; format: cell-based, rat; details: Abeta 42 oligomers
Method: In this assay, Abeta oligomers are brought in contact with mature primary neurons in culture and their binding was determined by immunohistochemistry (anti-Abeta antibody) and quantified by image processing. The amount of Abeta in neuronal dendrites is assessed by counting the number of labeled puncta on the neuritis. […] This labeling is associated with synapses, co-localizing with the post-synaptic scaffold protein PSD-95 (Lacor et al., '04). […] The number of synapses can also be quantified in this assay by immunofluorochemistry.
Primary hippocampal neuronal culture is established as in the membrane trafficking assay above. […] Pretreatment with test compounds for 1 hr and addition of Abeta oligomers or no oligomer (vehicle alone) is followed by incubation for an additional 23 hrs.
The plates are then washed 3× with PBS for 5 min each. The plates are blocked at RT for 1 hr in 5% goat serum and 0.5% Triton X-100 in PBS. Primary antibodies (anti-MAP 2 polyclonal, Millipore # AB5622 and anti-Beta Amyloid 6E10 monoclonal, Covance # SIG-39300, at 1 microgram/ml, and rabbit polyclonal anti-synaptophysin, Anaspec, at 0.2 microgram/ml) were diluted 1:1000 in 5% goat serum with PBS. Primary antibodies are incubated overnight at 4° C. The plates are then washed 3× with PBS for 5 min each. Secondary antibodies (Alex Flor 488 polyclonal, Invitrogen # A11008 and Alexa Flor 647 monoclonal, Invitrogen # A21235) are diluted 1:1000 in 5% goat serum with PBS. Secondary antibodies are incubated at RT for 1 hr. The plates are washed once with PBS. DAPI (4′,6-diamidino-2-phenylindole, Invitrogen) is then applied at 0.03 ug/ul and incubated at RT for 5 min, then washed with PBS.

Row | Compound | elimination of Abeta oligomer-induced synapse loss | recovery of synapse loss
1 | O=C(CCCN1CCC(O)(c2ccc(Cl)cc2)CC1)c1ccc(F)cc1 [haloperidol] | completely eliminated synapse loss | –
2 | CCCN(CCC)CCc1ccc(OC)c(OCCc2ccccc2)c1 [NE-100] | completely eliminated synapse loss | –
3 | CCC(Oc1ccc(Cl)cc1)C(=O)OC1CC2CCC(C1)N2C (stereo not drawn) [SM-21] | only weakly active in eliminating synapse loss | 20%

system: not listed separately; assay: Microsomal stability in mouse liver microsomes (MLM); format: in vitro ADME; details: half-life in mouse liver microsomes
Method: A first pharmacokinetic study was performed in microsomes of mice mouse liver microsomes, MLM) by a commercial contract research organization. The studies were performed according to Obach, R. S et al. (1997) J. Pharmacol. Exp. Ther., 283: 46-58, which is incorporated herein by reference.

Row | Compound | Mouse liver microsomes, MLM t½
4 | COc1cc2c(cc1OC)CN([C@H](C)CCc1ccc(Cl)c(Cl)c1)C2 [compound 11] | 61 min
5 | COc1cc(CC[C@@H](C)N2Cc3cc4c(cc3C2)OCO4)ccc1O [compound 6] | 20 min

same assay, conditions: mouse, microsomes

Row | Mouse liver microsomes, MLM t½ | Compound
6 | 8 min | CN(C)C(=O)c1cccc2c1CN(C(C)(C)CCc1ccc(O)c(OC(C)(C)C)c1)C2 [compound 59]
7 | 5 min | COC[C@H](CCc1ccc(Cl)c(Cl)c1)N1Cc2ccc(F)cc2C1 [compound 46]
8 | 15 min | COc1ccc2c(c1)CN([C@H](C)CCc1ccc(Cl)c(Cl)c1)C2.Cl [compound 15]
9 | 6 min | CC(C)Oc1ccc(CC[C@@H](C)N2Cc3cc4c(cc3C2)OCO4)cc1OC(C)C [compound 40]
10 | 12 min | CC(C)(CCc1ccc(O)c(OC(F)(F)F)c1)N1Cc2cccc(F)c2C1 [compound 54]
11 | 5 min | CC(C)Oc1cc(CC[C@@H](C)N2Cc3ccc(F)cc3C2)ccc1O [compound 37]
12 | 7 min | C[C@H](CCc1ccc(F)cc1)N1Cc2ccc(F)cc2C1 [compound 22]
13 | 25 min | C[C@H](CCc1ccc(Cl)c(Cl)c1)N1Cc2ccc3ccccc3c2C1 [compound 19]
14 | 91 min | COc1cc(CCC(C)(C)N2Cc3cc4c(cc3C2)OCO4)ccc1OCCO [compound 47]
15 | 8 min | C[C@H](CCc1ccc(O)c(OC(C)(C)C)c1)N1Cc2cccc(F)c2C1 [60B]
16 | 47 min | CC(C)(CCc1ccc(F)cc1)N1Cc2cc3c(cc2C1)OCO3 [compound 36]
17 | 46 min | COc1cc2c(cc1OC)CN(C(C)(C)CCc1ccc(F)cc1)C2 [compound 34]
18 | 5 min | C[C@H](CCc1ccc(O)c(OC(C)(C)C)c1)N1Cc2c(F)ccc(F)c2C1 [60A]
19 | 7 min | C[C@H](CCc1ccc(F)cc1)N1Cc2cccc(F)c2C1 [compound 21]
20 | 21 min | CC(C)(C)Oc1cc(CCC(C)(C)N2Cc3c(F)ccc(F)c3C2)ccc1O [compound 74]
21 | 10 min | COc1cc(CCC(C)N2Cc3ccc4ccccc4c3C2)ccc1O.Cl (stereo not drawn) [compound 17]
22 | 29 min | COc1cc(CCC(C)(C)N2Cc3cccc(F)c3C2)ccc1OCCO [compound 44]
23 | 39 min | CC(C)(CCc1ccc(O)c(OC(F)(F)F)c1)N1Cc2cccc(S(C)(=O)=O)c2C1 [compound 67]
24 | 450 min | COc1cc(CCC(C)(C)N2Cc3cccc(C(=O)NCCN(C)C)c3C2)ccc1O [compound 78]
25 | 6 min | CC(C)COc1cc(CCC(C)(C)N2Cc3cccc(C(=O)N4CCN(C)CC4)c3C2)ccc1O [compound 91]
26 | 14 min | CC(C)Oc1ccc(CCC(C)(C)N2Cc3ccc(F)cc3C2)cc1OC(C)C [compound 42]

Row | Mouse liver microsomes, MLM t½ | Compound
27 | 28 min | CC(C)COc1cc(CCC(C)(C)N2Cc3cccc(F)c3C2)ccc1O [compound 88]
28 | 88 min | COc1cc(CCC(C)(C)N2Cc3cccc(C(=O)N(C)CCN(C)C)c3C2)ccc1O [compound 81]
29 | 52 min | COc1cc(CCC(C)(C)N2Cc3cccc(S(C)(=O)=O)c3C2)ccc1O [compound 64]
30 | 79 min | CC(C)Oc1cc(CCC(C)(C)N2Cc3ccc(S(C)(=O)=O)cc3C2)ccc1O [compound 70]
31 | 5 min | C[C@H](CCc1ccc(F)cc1)N1Cc2cc3c(cc2C1)OCO3 [compound 23]
32 | 4 min | CC(C)Oc1cc(CCC(C)(C)N2Cc3cccc(F)c3C2)ccc1O [compound 28]
33 | 45 min | COc1cc(CCC(C)(C)N2Cc3cccc(C(=O)N4CCOCC4)c3C2)ccc1O [compound 80]
34 | 9 min | CC(C)(CCc1ccc(F)cc1)N1Cc2ccc(F)cc2C1 [compound 35]
35 | 5 min | CN1CCN(C(=O)c2cccc3c2CN(C(C)(C)CCc2ccc(O)c(OC(F)(F)F)c2)C3)CC1 [compound 93]
36 | 4 min | CC(C)Oc1cc(CC[C@@H](C)N2Cc3cccc(F)c3C2)ccc1O [compound 26]
37 | 7 min | CC(=O)N1CCN(C(=O)c2cccc3c2CN(C(C)(C)CCc2ccc(O)c(OCC(C)C)c2)C3)CC1 [compound 92]
38 | 28 min | COc1cc(CC[C@@H](C)N2Cc3ccc(C(F)(F)F)cc3C2)ccc1O [compound 2]
39 | 21 min | COc1cc(CCC(C)(C)N2Cc3cccc(F)c3C2)ccc1O [compound 53]
40 | 40 min | C[C@H](CCc1ccc(Cl)c(Cl)c1)N1Cc2ccc(C(F)(F)F)cc2C1 [compound 4]
41 | 21 min | COc1cc(CC[C@@H](C)N2Cc3cc(Cl)c(Cl)cc3C2)ccc1O [compound 3]
42 | 41 min | COc1cc(CC[C@@H](C)N2Cc3cccc(S(C)(=O)=O)c3C2)ccc1O [compound 65]
43 | 75 min | CC(C)Oc1cc(CC[C@@H](C)N2Cc3ccc(S(C)(=O)=O)cc3C2)ccc1O [compound 69]
44 | 27 min | COc1cc(CCC(C)(C)N2Cc3cccc(C(=O)N4CCN(C)CC4)c3C2)ccc1O [compound 82]
45 | 43 min | COc1cc2c(cc1OC)CN([C@@H](C)CCc1ccc(Cl)c(Cl)c1)C2 [compound 20]
46 | 26 min | CN(C)C(=O)c1cccc2c1CN(C(C)(C)CCc1ccc(O)c(OC(F)(F)F)c1)C2 [compound 57]
47 | 97 min | COc1cc(CC[C@@H](C)N2Cc3cc4c(cc3C2)OCO4)ccc1OCCO [compound 52]

Row | Mouse liver microsomes, MLM t½ | Compound
48 | 9 min | CC(C)COc1cc(CCC(C)(C)N2Cc3cccc(C(=O)N4CCOCC4)c3C2)ccc1O [compound 90]
49 | 16 min | COc1cc(CC[C@@H](C)N2Cc3cccc(F)c3C2)ccc1O [compound 8]
50 | 10 min | CC(C)(C)Oc1cc(CCC(C)(C)N2Cc3cccc(S(C)(=O)=O)c3C2)ccc1O [compound 66]
51 | 13 min | C[C@H](CCc1ccc(Cl)c(Cl)c1)N1Cc2ccc(F)cc2C1.Cl [compound 12]
52 | 34 min | CC(C)(CCc1ccc(O)c(OC(F)(F)F)c1)N1Cc2c(F)ccc(F)c2C1 [compound 55]
53 | 86 min | CC(C)COc1cc(CCC(C)(C)N2Cc3ccc(S(C)(=O)=O)cc3C2)ccc1O [compound 87]
54 | 96 min | COc1cc(CCC(C)(C)N2Cc3ccc(F)cc3C2)ccc1OCCO [compound 45]
55 | 14 min | CC(C)(CCc1ccc(O)c(OC(F)(F)F)c1)N1Cc2cccc(C(=O)N3CCOCC3)c2C1 [compound 94]
56 | 5 min | C[C@H](CCc1ccc(O)c(OC(F)(F)F)c1)N1Cc2cc3c(cc2C1)OCO3 [compound 24]
57 | 6 min | C[C@H](CCc1ccc(O)c(OC(F)(F)F)c1)N1Cc2ccc(F)cc2C1 [compound 31]
58 | 45 min | CC(C)(C)Oc1cc(CCC(C)(C)N2Cc3ccc(S(C)(=O)=O)cc3C2)ccc1O [compound 62]
59 | 66 min | COc1cc(CC[C@@H](C)N2Cc3cccc(F)c3C2)ccc1OCCO [compound 51]
60 | 53 min | C[C@H](CCc1ccc(Cl)c(Cl)c1)N1Cc2cc(Cl)c(Cl)cc2C1 [compound 5]
61 | 19 min | COCCN(C)C(=O)c1cccc2c1CN(C(C)(C)CCc1ccc(O)c(OC)c1)C2 [compound 86]
62 | 3 min | Cc1ccc2c(c1)CN([C@H](C)CCc1ccc(Cl)c(Cl)c1)C2 [compound 13]
63 | 31 min | C[C@H](CCc1ccc(O)c(OC(C)(C)C)c1)N1Cc2ccc(S(C)(=O)=O)cc2C1 [compound 63]
64 | 17 min | CC(C)COc1cc(CCC(C)(C)N2Cc3cccc(C(=O)N(C)C)c3C2)ccc1O [compound 89]
65 | 8 min | C[C@H](CCc1ccc(Cl)c(Cl)c1)N1Cc2cc3c(cc2C1)OCO3 [compound 10]
66 | 9 min | CC(C)(CCc1ccc(F)cc1)N1Cc2cccc(F)c2C1 [compound 33]
67 | 12 min | C[C@H](CCc1ccc(Cl)c(Cl)c1)N1Cc2cccc(Cl)c2C1.Cl [compound 16]
68 | 11 min | COc1cc(CC[C@@H](C)N2Cc3ccc(Cl)cc3C2)ccc1O [compound 1]

Row | Compound | Mouse liver microsomes, MLM t½
69 | C[C@H](CCc1ccc(OC(=O)N(C)C)c(OC(F)(F)F)c1)N1Cc2ccc(F)cc2C1 [compound 43] | 5 min
70 | C[C@H](CCc1ccc(Cl)c(Cl)c1)N1Cc2cccc(F)c2C1 [compound 9] | 12 min
71 | COc1cc(CCC(C)(C)N2Cc3ccc(F)cc3C2)ccc1OC(=O)N(C)C [compound 50] | 33 min
